These results are taken from patent US6503881B2 (priority 1996, dated 2003).

Where two headings read alike, the source gives them in different places.

One assay deals with bacterial isolates. As to conditions: S. aureus 19 MRSA.
The next assay has as its system E. coli strain ML-35. It is filed as cell-based. As to conditions: for ONPG hydrolysis diminished: cells pre-incubated with vancomycin, compared to no pre-incubation.
For another assay, the system named is P. aeruginosa. It is filed as cell-based. As to conditions: P. aeruginosa PA008; pair Ceftriaxone / MBI 11B7CN.
Assay [1] deals with MSSA (Smith, ATCC #19640). It is filed as in vivo, S. aureus. As to conditions: formulation D.
Another assay has as its system MRSA (ATCC #33591). Type of assay: in vivo, S. aureus. As to conditions: for Percentage of Animals Surviving, Treatment: MRSA ip infection in mice, iv in formulation D, protocol not named in table (1 mg/kg (20 min)); for survival: iv.
In assay [2] the test system is microorganisms with acquired resistance. As to conditions: for Peptide MIC: pair Mupirocin / MBI 10CN.
Assay [3] is classed as biochemical.
Assay [4] deals with S. epidermidis (ATCC #12228). As to conditions: in vivo, iv.
Setting [5] is: E. coli ATCC 25922, agarose dilution assay.
[6] abbreviates: E. coli NCTC 10418, agarose dilution assay.
The mark [7] stands for this setting: E. faecium ATCC 29212, agarose dilution assay.
Where [8] appears, read: P. aeruginosa ATCC 27853, agarose dilution assay.
The mark [9] stands for this setting: P. aeruginosa NCTC 10662, agarose dilution assay.
[10] abbreviates: S. aureus MRSA9, agarose dilution assay.
Setting [11] is: S. aureus MRSA13, agarose dilution assay.
The mark [12] stands for this setting: S. aureus MRSA17, agarose dilution assay.
[13] abbreviates: S. marcescens SM82, agarose dilution assay.
Setting [14] is: S. pneumoniae 406LE8, agarose dilution assay.
[15] abbreviates: S. pneumoniae 60120, agarose dilution assay.
Where [16] appears, read: S. pneumoniae ATCC 49619, agarose dilution assay.

With I L R W P W W P W R R K [MBI 11B7CN], the FIC in the assay on bacterial isolates (Piperacillin + peptide) worked out at 0.50. Besides, in the assay on bacterial isolates, the “Peptide MIC + Piperacillin” value was 1 µg/mL, the “Peptide MIC Alone” value is 4 µg/mL and the “Piperacillin MIC + Peptide” value came out at 32 µg/mL. Further, the membrane permeabilizing activity result in the assay on E. coli strain ML-35 (peptide pre-incubated with 150 mM NaCl or 5 mM Mg2+) is given as “significant inhibition”. Also, the FIC with P. aeruginosa was 9.50.

As for I L K K W P W W P W R R K [MBI 11CN], the “survival (mice rescued)” value in [1] (ip 35.7 mg/kg, 60 minutes post-infection, 8 days) is 100%. The “activity at lower dose levels” value in assay [1] (ip below 35.7 mg/kg) is on record as “little or no activity”. For the same substance, the “Percentage of Animals Surviving, Treatment” value in the assay with MRSA (ATCC #33591) (6 hours post-infection) was determined as 70%; in the assay on MRSA (ATCC #33591) (10 hours post-infection), 30%. Besides, the survival entry with MRSA (ATCC #33591) (1 mg/kg (20 min) protocol, injections 5 minutes apart) is on record as “delayed the death of the mice to a significant extent”; in the assay on MRSA (ATCC #33591) (5 mg/kg and 1 mg/kg (2 hr) protocols, injections 1 hour apart) it was “no improvement in survivability over the negative control”. In addition, the MIC against bacteria (setting [5]) is 16 µg/mL; against bacteria (setting [6]), 4 µg/mL; against bacteria (setting [7]), 8 µg/mL; in the assay on bacteria (setting [8]), above 128 µg/mL; in the assay with bacteria (setting [9]), above 128 µg/mL; in the assay on bacteria (setting [10]) it was 2 µg/mL. The MIC in the assay with bacteria (setting [11]) was 16 µg/mL; with bacteria (setting [12]) it was 4 µg/mL; with bacteria (setting [13]), above 128 µg/mL; with bacteria (setting [14]) it was above 128 µg/mL; in the assay on bacteria (setting [15]) it was above 128 µg/mL; against bacteria (setting [16]), 64 µg/mL. Moreover, the FIC in [2] (peptide + Tobramycin, S. maltophilia SMA030) was found to be 9.27. Besides, the “membrane permeabilizing activity (ANTS/DPX dye release)” value in assay [3] is recorded as “virtually abolishes membrane permeabilizing activity”. Moreover, the ONPG hydrolysis diminished result in the assay with E. coli strain ML-35 is given as “approximately 50%”. Besides, the survival of mice result in assay [4] is given as “prolongs the survival of the mice”.

I L P W K W P W W P W R R [MBI 10CN]: the MIC is 64 µg/mL with bacteria (A. calcoaceticus AC001); above 128 µg/mL against bacteria (E. cloacae ECL007); 16 µg/mL in the assay with bacteria (setting [5]); 32 µg/mL with bacteria (E. coli ECO001); 8 µg/mL in the assay on bacteria (setting [6]); 16 µg/mL in the assay with bacteria (E. coli SBECO2). The MIC in the assay with bacteria (E. faecalis EFS004) is 8 µg/mL; against bacteria (setting [7]), 4 µg/mL; against bacteria (E. faecium EFM003) it was 2 µg/mL; in the assay on bacteria (K. pneumoniae KP002), 64 µg/mL; against bacteria (setting [8]) it was above 128 µg/mL; with bacteria (setting [9]), above 128 µg/mL. For the same substance, the MIC against bacteria (P. aeruginosa PA002) is above 128 µg/mL; with bacteria (setting [10]) it was 1 µg/mL; against bacteria (setting [11]), 4 µg/mL; with bacteria (setting [12]) it was 2 µg/mL; with bacteria (S. aureus SA003), 2 µg/mL; against bacteria (S. epidermidis SE010) it was 4 µg/mL. The MIC is 64 µg/mL against bacteria (S. maltophilia SMA002); above 128 µg/mL in the assay with bacteria (setting [13]); above 128 µg/mL with bacteria (S. marcescens SMS004); above 128 µg/mL with bacteria (setting [14]); 64 µg/mL with bacteria (setting [15]); 32 µg/mL against bacteria (setting [16]). The Peptide MIC turned out to be 4 µg/mL in assay [2] (S. aureus MRSA 13); 1 µg/mL in assay [2] (S. aureus MRSA 17, first line); 2 µg/mL in [2] (S. aureus MRSA 17, second line). Further, the ONPG hydrolysis diminished result in the assay with E. coli strain ML-35 is “approximately 50%”.

One may read the MIC as the least concentration at which growth counts as inhibited.
